Laboratory results reported in patent US8535736B2, “Methods and compositions for the treatment of infection or infectious colonization of the eyelid, ocular surface, skin or ear” (Advanced Vision Research, Inc, priority 2006, dated 2013).

Tests used:
P. aeruginosa = details: disc diffusion and broth dilution methods; cited from earlier work
Staphylococcus aureus = test: Kill-time test (exposure time, survivors, log and percent reduction in CFU); format: cell-based; details: at 1 minute
Procedure: (§1) The following experiments were performed with a number of topical preparations to test the efficacy of each preparation against both gram negative and gram positive bacteria. The data is presented in tables showing the organism which the preparation was tested against, the exposure time, the number of survivors, the log reduction and the percent reduction in CFUs (Colony Forming Units).
(§2) Experiments were performed with tea tree oil, manuka oil, alpha-terpineol, and linalool in the EyeCI vehicle. The EyeCL vehicle (Advanced Vision Research, Woburn, Mass.) and OcuSoft Lid Scrub Foaming Eyelid Cleanser (CYNACON/OCUSOFT, Rosenberg, Tex.) were tested as controls.

Pseudomonas aeruginosa = test: as above; format: cell-based; details: Linalool 0.75% alone, at one minute
Procedure: as §1, §2

For CC1=CCC(C(C)(C)O)CC1 (stereo not drawn) [alpha-terpineol], the “activity against P. aeruginosa” value (P. aeruginosa) is given as “inactive”.
For C=CC(C)(O)CCC=C(C)C (centres unmarked) [linalool], the “activity against P. aeruginosa” value (P. aeruginosa) is given as “inactive”, the “log reduction in S. aureus killing” value (Staphylococcus aureus; 0.75% linalool alone) is given as roughly 1 log and the “log reduction in S. aureus” value (Staphylococcus aureus; 0.85% linalool) is given as greater than 1 log. For the same molecule, the “log of Pseudomonas killing” value (Pseudomonas aeruginosa) was “greater than 1 log”.
